Tests used:
HT-22 [1] = assay: Neuroprotective activity against glutamate-induced neuronal cell damage in mouse HT22 cells assessed as cell survival rate at 100 uM after 24 hrs by MTT assay (reference value: 12.49 to 43.44%); format: functional; details: HT-22, 24 h, read-out: Survival
[2] = Cytotoxicity against mouse HT22 cells assessed as cell survival rate at 100 uM after 24 hrs by MTT assay; format: toxicity, HT-22; details: read-out: Survival
HT-22 [3] = assay: Neuroprotective activity against glutamate-induced neuronal cell damage in mouse HT22 cells assessed as cell survival rate at 10 uM after 24 hrs by MTT assay (reference value: 12.49 to 43.44%); format: functional; details: HT-22, 24 h, read-out: Survival
HT-22 [4] = assay: Neuroprotective activity against glutamate-induced neuronal cell damage in mouse HT22 cells assessed as cell survival rate at 50 uM after 24 hrs by MTT assay (reference value: 12.49 to 43.44%); format: functional; details: HT-22, 24 h, read-out: Survival
HT-22 [5] = assay: Neuroprotective activity against glutamate-induced neuronal cell damage in mouse HT22 cells assessed as cell survival rate at 1 uM after 24 hrs by MTT assay (reference value: 12.49 to 43.44%); format: functional; details: HT-22, 24 h, read-out: Survival
Rattus norvegicus = assay: Protection against focal cerebral ischemia in Wistar rat model of […] assessed as reduction in infarction volume administered ip at 2 hrs post reperfusion measured 3 days post MCAO; format: functional
HT-22 [6] = assay: Neuroprotective activity against glutamate-induced neuronal cell damage in mouse HT22 cells assessed as increase in cell viability at 1 to 100 uM after 24 hrs by MTT assay relative to glutamate; format: functional
Mus musculus [7] = assay: Protection against focal cerebral ischemia in ICR mouse model of […] assessed as reduction in infarct volume administered ip 3 hrs post reperfusion measured 48 hrs post MCAO by TTC staining based assay; format: functional
Mus musculus [8] = assay: Protection against focal cerebral ischemia in ICR mouse model of […] assessed as infarct volume of striatum at 100 mg/kg, ip dosed 3 hrs post reperfusion measured 48 hrs post MCAO by TTC staining based assay (reference value: 56.18%); format: functional
Mus musculus [9] = assay: Protection against focal cerebral ischemia in ICR mouse model of […] assessed as infarct volume of […] at 100 mg/kg, ip dosed 3 hrs post reperfusion measured 48 hrs post MCAO by TTC staining based assay (reference value: 62.75%); format: functional
Mus musculus [10] = assay: Protection against focal cerebral ischemia in ICR mouse model of […] assessed as infarct volume of hemisphere at 100 mg/kg, ip dosed 3 hrs post reperfusion measured 48 hrs post MCAO by TTC staining based assay (reference value: 44.98%); format: functional

SMILES: O=C(N[C@@H](Cc1ccccc1)C(=O)OCCCCOc1ccc(-c2cc(=S)ss2)cc1)c1cccnc1
- viability at 100 µM (HT-22 [1]): 101%
- viability at 24 h, 100 µM [2]: 100%
- viability at 10 µM (HT-22 [3]): 87.7%
- viability at 50 µM (HT-22 [4]): 101%
- viability at 1 µM (HT-22 [5]): 64.7%

SMILES: O=C(OCCCOc1ccc(-c2cc(=S)ss2)cc1)c1cccnc1
- viability at 100 µM (HT-22 [1]): 89.8%
- viability at 24 h, 100 µM [2]: 100%
- viability at 10 µM (HT-22 [3]): 87.2%
- viability at 50 µM (HT-22 [4]): 93.4%
- viability at 1 µM (HT-22 [5]): 33.7%

SMILES: NC(=O)c1cccnc1 [NIACINAMIDE]
- MED (Rattus norvegicus): 500 mg/kg

SMILES: O=C(OCCOc1ccc(-c2cc(=S)ss2)cc1)c1cccnc1
- viability at 100 µM (HT-22 [1]): 102%
- viability at 24 h, 100 µM [2]: 100%
- viability at 10 µM (HT-22 [3]): 80.8%
- viability at 50 µM (HT-22 [4]): 91.5%
- viability at 1 µM (HT-22 [5]): 57.9%

SMILES: Oc1ccc(-c2cc(=S)ss2)cc1
- viability at 100 µM (HT-22 [1]): 76.4%
- viability at 10 µM (HT-22 [3]): 52.2%
- viability at 50 µM (HT-22 [4]): 104%
- viability at 1 µM (HT-22 [5]): 33.4%

SMILES: O=C(OCCCCOc1ccc(-c2cc(=S)ss2)cc1)c1cccnc1
- viability at 100 µM (HT-22 [1]): 93.5%
- viability at 24 h, 100 µM [2]: 52.9%
- viability at 10 µM (HT-22 [3]): 94.8%
- viability at 50 µM (HT-22 [4]): 87.9%
- viability at 1 µM (HT-22 [5]): 66.9%

SMILES: O=C(Oc1ccc(-c2cc(=S)ss2)cc1)c1cccnc1
- viability at 100 µM (HT-22 [1]): 78.3%
- viability at 24 h, 100 µM [2]: 100%
- viability at 10 µM (HT-22 [3]): 64.2%
- viability at 50 µM (HT-22 [4]): 82.4%
- viability at 1 µM (HT-22 [5]): 43.3%

SMILES: C[C@H](NC(=O)c1cccnc1)C(=O)OCCCCOc1ccc(-c2cc(=S)ss2)cc1
- viability at 100 µM (HT-22 [1]): 71.1%
- viability at 24 h, 100 µM [2]: 100%
- viability at 10 µM (HT-22 [3]): 75.5%
- viability at 50 µM (HT-22 [4]): 77.9%
- viability at 1 µM (HT-22 [5]): 68.7%

SMILES: O=C(O)c1cccnc1 [NIACIN]
- viability at 100 µM (HT-22 [1]): 75.3%
- viability at 10 µM (HT-22 [3]): 58.9%
- viability at 50 µM (HT-22 [4]): 63.8%
- viability at 1 µM (HT-22 [5]): 56.2%

SMILES: CC(C)[C@H](NC(=O)c1cccnc1)C(=O)OCCCCOc1ccc(-c2cc(=S)ss2)cc1
- viability at 100 µM (HT-22 [1]): 68.1%
- viability at 24 h, 100 µM [2]: 68%
- viability at 10 µM (HT-22 [3]): 72.4%
- viability at 50 µM (HT-22 [4]): 70.8%
- viability at 1 µM (HT-22 [5]): 73.3%

SMILES: O=C(OCCCCCCCCOc1ccc(-c2cc(=S)ss2)cc1)c1cccnc1
- viability at 100 µM (HT-22 [1]): 82.3%
- viability at 24 h, 100 µM [2]: 100%
- viability at 10 µM (HT-22 [3]): 78%
- viability at 50 µM (HT-22 [4]): 76.3%
- viability at 1 µM (HT-22 [5]): 82.5%

SMILES: O=C(CNC(=O)c1cccnc1)OCCCCOc1ccc(-c2cc(=S)ss2)cc1
- viability at 100 µM (HT-22 [1]): 99%
- viability at 24 h, 100 µM [2]: 100%
- viability at 10 µM (HT-22 [3]): 87.4%
- viability at 50 µM (HT-22 [4]): 100%
- viability at 1 µM (HT-22 [5]): 69.2%

SMILES: O=C(OCCCCCCOc1ccc(-c2cc(=S)ss2)cc1)c1cccnc1
- fold change (FC) (HT-22 [6]): 6
- MED (Mus musculus [7]): 100 mg/kg
- Activity (Mus musculus [8]): 23.04%
- Activity (Mus musculus [9]): 38.01%
- viability at 100 µM (HT-22 [1]): 71.3%
- viability at 24 h, 100 µM [2]: 100%
- viability at 10 µM (HT-22 [3]): 83.2%
- viability at 50 µM (HT-22 [4]): 78.2%
- viability at 1 µM (HT-22 [5]): 82.6%
- Activity (Mus musculus [10]): 25.93%

SMILES: O=C(OCCCCCCCCCOc1ccc(-c2cc(=S)ss2)cc1)c1cccnc1
- viability at 100 µM (HT-22 [1]): 70.4%
- viability at 24 h, 100 µM [2]: 70.4%
- viability at 10 µM (HT-22 [3]): 101%
- viability at 50 µM (HT-22 [4]): 80.6%
- viability at 1 µM (HT-22 [5]): 108%

SMILES: O=C(OCCCCCOc1ccc(-c2cc(=S)ss2)cc1)c1cccnc1
- viability at 100 µM (HT-22 [1]): 82.2%
- viability at 24 h, 100 µM [2]: 100%
- viability at 10 µM (HT-22 [3]): 92.5%
- viability at 50 µM (HT-22 [4]): 93.3%
- viability at 1 µM (HT-22 [5]): 52.9%

Source: ChEMBL document CHEMBL3860062, “Synthesis and biological evaluation of novel hydrogen sulfide releasing nicotinic acid derivatives” (Bioorg Med Chem, 2016)
